{"source": "patent US20070015662A1", "about": "“Herbicide/safener combination” (Bayer CropScience GmbH, priority 2005, published 2007)", "key": {"[1]": {"tested_on": "Sinapis alba, Chrysanthemum segetum, Avena sativa, Stellaria media, Echinochloa crus-galli, Lolium multiflorum, Setaria viridis, Abutilon theophrasti …", "assay": "Pre-emergence action against weeds (greenhouse pot test, optical scoring)", "assay_type": "in vivo, monocotyledonous and dicotyledonous weed plants", "conditions": "pre-emergence method; 500 g or less of herbicide (A) per hectare; herbicide/safener combination with safeners II-1, II-9, III-1, b-11, b-14, IX-A3; scored after 3 to 4 weeks", "from_the_text": "Seeds or rhizome pieces of monocotyledonous and dicotyledonous weed plants were placed in sandy loam soil in cardboard pots and covered with soil. The active compounds (A) and (B), formulated in the form of wettable powders or emulsion concentrates, were then applied to the surface of the covering soil in various dosages as aqueous suspensions or emulsions using a water application rate of 300 to 800 I/ha (converted).\nAfter the treatment, the pots were placed in a greenhouse and kept under good growth conditions for the weeds. Optical scoring of the damage to the plants or emerged plants was carried out after emergence of the test plants after a trial period of 3 to 4 weeks, in comparison to untreated controls. As shown by the results, the tested herbicide/safener combinations have good herbicidal pre-emergence activity against a broad spectrum of weed grasses and broad-leaved weeds."}, "[2]": {"tested_on": "Sinapis alba, Echinochloa crus-galli, Lolium multiflorum, Chrysanthemum segetum, Setaria viridis, Abutilon theophrasti, Amaranthus retroflexus, Panicum …", "assay": "Post-emergence action against weeds (greenhouse pot test, visual scoring)", "assay_type": "in vivo, monocotyledonous and dicotyledonous weeds", "conditions": "post-emergence method, three-leaf stage; 500 g or less of herbicide (A) per hectare; herbicide/safener combination with safeners II-1, II-9, III-1, b-11, b-14, IX-A3; scored after about three to four weeks", "procedure": "Seeds or rhizome pieces of monocotyledonous and dicotyledonous weeds were placed into sandy loam soil in plastic pots, covered with soil and grown in a greenhouse under good growth conditions. Three weeks after sowing, the test plants were treated at the three-leaf stage. The compounds according to the invention, formulated as wettable powders or as emulsion concentrates, were sprayed onto the green parts of the plants at various dosages using a water application rate of 300 to 800 I/ha (converted). The test plants were stood in the greenhouse under optimum growth conditions for about three to four weeks, and the action of the preparations was then scored visually in comparison to untreated controls. Post-emergence, too, the herbicide/safener combinations according to the invention have good herbicidal activity against a broad spectrum of economically important weed grasses and broad-leaved weeds."}, "[3]": {"tested_on": "cotton, oilseed rape, sugar beet and Gramineae crops such as barley, wheat, rye, millet, corn or rice", "assay": "Compatibility with crop plants (greenhouse, visual scoring)", "assay_type": "in vivo", "conditions": "pre-emergence method or post-emergence method; herbicide/safener combination with safeners II-1, II-9, III-1, b-11, b-14, IX-A3; four to five weeks after application", "from_the_text": "In further greenhouse trials, seeds of a relatively large number of crop plants and weeds were placed into sandy loam soil and covered with soil. Some of the pots were immediately treated as described in Section 1, the others were placed in a greenhouse until the plants had developed two to three true leaves and were then sprayed with various dosages of the herbicide/safener combinations according to the invention, as described in Section 2."}}, "data": [{"molecule": "CCC1(C)CC(S(=O)(=O)Cc2c(C(F)(F)F)nn(C)c2OC(F)F)=NO1", "note": "(stereo not shown) [I-67.2]", "values": [{"measurement": "herbicidal activity against harmful plants (optical scoring of damage vs untreated controls)", "setting": "[1]", "result": "very good herbicidal activity"}, {"measurement": "herbicidal activity against harmful plants (visual scoring vs untreated controls)", "setting": "[2]", "result": "very good herbicidal activity"}, {"measurement": "damage to crop plants (visual scoring)", "setting": "[3]", "result": "did not cause any damage"}]}, {"molecule": "Cn1nc(C(F)(F)F)c(CS(=O)(=O)C2=NOC(C)(C)C2)c1OC(F)F", "note": "[I-67.1]", "values": [{"measurement": "herbicidal activity against harmful plants (optical scoring of damage vs untreated controls)", "setting": "[1]", "result": "very good herbicidal activity"}, {"measurement": "herbicidal activity against harmful plants (visual scoring vs untreated controls)", "setting": "[2]", "result": "very good herbicidal activity"}, {"measurement": "damage to crop plants (visual scoring)", "setting": "[3]", "result": "did not cause any damage"}]}, {"molecule": "CC1(C)CC(S(=O)(=O)Cc2c(F)cccc2F)=NO1", "note": "[I-3.1]", "values": [{"measurement": "herbicidal activity against harmful plants (optical scoring of damage vs untreated controls)", "setting": "[1]", "result": "very good herbicidal activity"}, {"measurement": "herbicidal activity against harmful plants (visual scoring vs untreated controls)", "setting": "[2]", "result": "very good herbicidal activity"}, {"measurement": "damage to crop plants (visual scoring)", "setting": "[3]", "result": "did not cause any damage"}]}, {"molecule": "CC1(C)CC(S(=O)(=O)Cc2cccc3c2OCC3)=NO1", "note": "[I-24.1]", "values": [{"measurement": "herbicidal activity against harmful plants (optical scoring of damage vs untreated controls)", "setting": "[1]", "result": "very good herbicidal activity"}, {"measurement": "herbicidal activity against harmful plants (visual scoring vs untreated controls)", "setting": "[2]", "result": "very good herbicidal activity"}, {"measurement": "damage to crop plants (visual scoring)", "setting": "[3]", "result": "did not cause any damage"}]}, {"molecule": "CCC1(C)CC(S(=O)(=O)Cc2cc3c(cc2Cl)OCO3)=NO1", "note": "(stereo not shown) [I-52.2]", "values": [{"measurement": "herbicidal activity against harmful plants (optical scoring of damage vs untreated controls)", "setting": "[1]", "result": "very good herbicidal activity"}, {"measurement": "herbicidal activity against harmful plants (visual scoring vs untreated controls)", "setting": "[2]", "result": "very good herbicidal activity"}, {"measurement": "damage to crop plants (visual scoring)", "setting": "[3]", "result": "did not cause any damage"}]}, {"molecule": "CC1(C)CC(S(=O)(=O)Cc2cccc3c2OC(F)(F)O3)=NO1", "note": "[I-23.1]", "values": [{"measurement": "herbicidal activity against harmful plants (optical scoring of damage vs untreated controls)", "setting": "[1]", "result": "very good herbicidal activity"}, {"measurement": "herbicidal activity against harmful plants (visual scoring vs untreated controls)", "setting": "[2]", "result": "very good herbicidal activity"}, {"measurement": "damage to crop plants (visual scoring)", "setting": "[3]", "result": "did not cause any damage"}]}, {"molecule": "CCC1(C)CC(S(=O)(=O)Cc2c(F)cccc2F)=NO1", "note": "(stereo not shown) [I-3.2]", "values": [{"measurement": "herbicidal activity against harmful plants (optical scoring of damage vs untreated controls)", "setting": "[1]", "result": "very good herbicidal activity"}, {"measurement": "herbicidal activity against harmful plants (visual scoring vs untreated controls)", "setting": "[2]", "result": "very good herbicidal activity"}, {"measurement": "damage to crop plants (visual scoring)", "setting": "[3]", "result": "did not cause any damage"}]}, {"molecule": "CCC1(C)CC(S(=O)(=O)Cc2cccc3c2OC(F)(F)O3)=NO1", "note": "(stereo not shown) [I-23.2]", "values": [{"measurement": "herbicidal activity against harmful plants (optical scoring of damage vs untreated controls)", "setting": "[1]", "result": "very good herbicidal activity"}, {"measurement": "herbicidal activity against harmful plants (visual scoring vs untreated controls)", "setting": "[2]", "result": "very good herbicidal activity"}, {"measurement": "damage to crop plants (visual scoring)", "setting": "[3]", "result": "did not cause any damage"}]}, {"molecule": "CC1(C)CC(S(=O)(=O)Cc2cccc3c2OC(F)(F)C(F)(F)O3)=NO1", "note": "[I-22.1]", "values": [{"measurement": "herbicidal activity against harmful plants (optical scoring of damage vs untreated controls)", "setting": "[1]", "result": "very good herbicidal activity"}, {"measurement": "herbicidal activity against harmful plants (visual scoring vs untreated controls)", "setting": "[2]", "result": "very good herbicidal activity"}, {"measurement": "damage to crop plants (visual scoring)", "setting": "[3]", "result": "did not cause any damage"}]}, {"molecule": "CC1(C)CC(S(=O)(=O)Cc2cc3c(cc2Cl)OCO3)=NO1", "note": "[I-52.1, 3-{[(6-Chloro-1,3-benzodioxol-5-yl)methyl]sulfonyl}-5,5-dimethyl-4,5-dihydroisoxazole]", "values": [{"measurement": "melting point", "result": 170, "unit": "°C"}, {"measurement": "herbicidal activity against harmful plants (optical scoring of damage vs untreated controls)", "setting": "[1]", "result": "very good herbicidal activity"}, {"measurement": "herbicidal activity against harmful plants (visual scoring vs untreated controls)", "setting": "[2]", "result": "very good herbicidal activity"}, {"measurement": "damage to crop plants (visual scoring)", "setting": "[3]", "result": "did not cause any damage"}]}, {"molecule": "CCC1(C)CC(S(=O)(=O)Cc2cc(F)ccc2F)=NO1", "note": "(stereo not shown) [I-2.2]", "values": [{"measurement": "herbicidal activity against harmful plants (optical scoring of damage vs untreated controls)", "setting": "[1]", "result": "very good herbicidal activity"}, {"measurement": "herbicidal activity against harmful plants (visual scoring vs untreated controls)", "setting": "[2]", "result": "very good herbicidal activity"}, {"measurement": "damage to crop plants (visual scoring)", "setting": "[3]", "result": "did not cause any damage"}]}, {"molecule": "Cn1nc(C(F)(F)F)c(CS(=O)(=O)C2=NOC(C)(C)C2)c1Cl", "note": "[I-77.1]", "values": [{"measurement": "herbicidal activity against harmful plants (optical scoring of damage vs untreated controls)", "setting": "[1]", "result": "very good herbicidal activity"}, {"measurement": "herbicidal activity against harmful plants (visual scoring vs untreated controls)", "setting": "[2]", "result": "very good herbicidal activity"}, {"measurement": "damage to crop plants (visual scoring)", "setting": "[3]", "result": "did not cause any damage"}]}, {"molecule": "CCC1(C)CC(S(=O)(=O)Cc2cccc3c2OC(F)(F)C(F)(F)O3)=NO1", "note": "(stereo not shown) [I-22.2]", "values": [{"measurement": "herbicidal activity against harmful plants (optical scoring of damage vs untreated controls)", "setting": "[1]", "result": "very good herbicidal activity"}, {"measurement": "herbicidal activity against harmful plants (visual scoring vs untreated controls)", "setting": "[2]", "result": "very good herbicidal activity"}, {"measurement": "damage to crop plants (visual scoring)", "setting": "[3]", "result": "did not cause any damage"}]}, {"molecule": "CC1(C)CC(S(=O)(=O)Cc2cccc3c2OCCO3)=NO1", "note": "[I-21.1]", "values": [{"measurement": "herbicidal activity against harmful plants (optical scoring of damage vs untreated controls)", "setting": "[1]", "result": "very good herbicidal activity"}, {"measurement": "herbicidal activity against harmful plants (visual scoring vs untreated controls)", "setting": "[2]", "result": "very good herbicidal activity"}, {"measurement": "damage to crop plants (visual scoring)", "setting": "[3]", "result": "did not cause any damage"}]}, {"molecule": "CCC1(C)CC(S(=O)(=O)Cc2cccc3c2OCC3)=NO1", "note": "(stereo not shown) [I-24.2]", "values": [{"measurement": "herbicidal activity against harmful plants (optical scoring of damage vs untreated controls)", "setting": "[1]", "result": "very good herbicidal activity"}, {"measurement": "herbicidal activity against harmful plants (visual scoring vs untreated controls)", "setting": "[2]", "result": "very good herbicidal activity"}, {"measurement": "damage to crop plants (visual scoring)", "setting": "[3]", "result": "did not cause any damage"}]}, {"molecule": "CCC1(C)CC(S(=O)(=O)Cc2cccc3c2OCCO3)=NO1", "note": "(stereo not shown) [I-21.2]", "values": [{"measurement": "herbicidal activity against harmful plants (optical scoring of damage vs untreated controls)", "setting": "[1]", "result": "very good herbicidal activity"}, {"measurement": "herbicidal activity against harmful plants (visual scoring vs untreated controls)", "setting": "[2]", "result": "very good herbicidal activity"}, {"measurement": "damage to crop plants (visual scoring)", "setting": "[3]", "result": "did not cause any damage"}]}]}
